For this assay, the target named is T1, glucokinase (GK) enzyme (Homo sapiens, UniProt P35557).
T1 sequence (P35557 1-465): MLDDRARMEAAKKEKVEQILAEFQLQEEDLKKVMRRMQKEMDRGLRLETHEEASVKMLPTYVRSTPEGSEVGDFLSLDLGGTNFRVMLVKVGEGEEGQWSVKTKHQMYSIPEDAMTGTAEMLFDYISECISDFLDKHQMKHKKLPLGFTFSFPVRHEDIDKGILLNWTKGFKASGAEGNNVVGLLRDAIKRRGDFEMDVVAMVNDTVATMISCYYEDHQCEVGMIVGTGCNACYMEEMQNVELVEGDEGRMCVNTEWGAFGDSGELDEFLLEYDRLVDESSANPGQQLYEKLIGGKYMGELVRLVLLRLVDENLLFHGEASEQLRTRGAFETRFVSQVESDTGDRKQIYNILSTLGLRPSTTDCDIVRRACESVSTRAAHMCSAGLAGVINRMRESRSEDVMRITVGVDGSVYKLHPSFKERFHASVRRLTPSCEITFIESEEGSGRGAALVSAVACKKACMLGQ
Briefly: In-vitro glucokinase (GK) activation assay (coupled with glucose-6-phosphate dehydrogenase, absorbance at 340). It counts as biochemical. As to conditions: glucose 2.5 mM, read-out: % of GK activity wrt DMSO; for activity at 0.1 µM: 0.1 uM compound; for activity at 1 µM: 1 uM compound; for activity at 5 µM: 5 uM compound; for activity at 10 µM: 10 uM compound. The procedure: The compound of the invention was incubated with glucokinase (GK) enzyme (0.2 units) for 10 minutes in assay buffer at 26° C. After incubation, addition of glucose-6-phosphate dehydrogenase (2.5 units), ATP (1 mM) and glucose (2.5 mM). Absorbance is measured at 340 nm for 15 minutes with 10 second interval using UV transparent plate in kinetic mode on Spectramax-190 at 30° C.

In the case of `Cc1csc(NC(=O)c2cc(Oc3ccc(-c4noc(C)n4)cc3)cc(OC3CCN(C)C3=O)c2)n1` (stereo not shown) [Example 22, 3-(4-(5-Methyl-1,2,4-oxadiazol-3-yl)phenoxy)-5-((1-methyl-2-oxopyrrolidin-3-yl)oxy)-N-(4-methylthiazol-2-yl)benzamide], the activity at 0.1 µM is 163%, the activity at 1 µM is 283%, the activity at 5 µM came out at 347% and the activity at 10 µM was determined as 320%.
The corresponding values for `CCc1nnc(-c2ccc(Oc3cc(OC4CCN(C)C4=O)cc(C(=O)Nc4nccs4)c3)cc2)o1` (stereo not shown) [Example 29, 3-(4-(5-Ethyl-1,3,4-oxadiazol-2-yl)phenoxy)-5-((1-methyl-2-oxopyrrolidin-3-yl)oxy)-N-(thiazol-2-yl)benzamide] are 167%, 268%, 335% and 347%.
The corresponding values for `Cc1nnc(-c2ccc(Oc3cc(OC4CCN(C)C4=O)cc(C(=O)Nc4nc5ccccc5s4)c3)cc2)o1` (stereo not shown) [Example 14, N-(Benzo[d]thiazol-2-yl)-3-(4-(5-methyl-1,3,4-oxadiazol-2-yl)phenoxy)-5-((1-methyl-2-oxopyrrolidin-3-yl)oxy)benzamide] are 271%, 298%, 288% and 267%.
On the same counts, the results for `Cc1nnc(-c2ccc(Oc3cc(OC4CCN(C5CC5)C4=O)cc(C(=O)Nc4ncc(C)s4)c3)cc2)o1` (stereo not shown) [Example 20, 3((1-Cyclopropyl-2-oxopyrrolidin-3-yl)oxy)-5-(4-(5-methyl-1,3,4-oxadiazol-2-yl)phenoxy)-N-(5-methylthiazol-2-yl)benzamide] are 121%, 188%, 208% and 196%.
As for `CCOC(=O)c1cnc(NC(=O)c2cc(Oc3ccc(-c4nnc(C)o4)cc3)cc(OC3CCN(C)C3=O)c2)s1` (stereo not shown) [Example 25, Ethyl 2-(3-(4-(5-methyl-1,3,4-oxadiazol-2-yl)phenoxy)-5-((1-methyl-2-oxopyrrolidin-3-yl)oxy)benzamido)thiazole-5-carboxylate], the activity at 0.1 µM is 125%, the activity at 1 µM stood at 149%, the activity at 5 µM stood at 203% and the activity at 10 µM came out at 208%.
The corresponding values for `Cc1nnc(-c2ccc(Oc3cc(OC4CCN(C)C4=O)cc(C(=O)Nc4ncc(Br)s4)c3)cc2)o1` (stereo not shown) [Example 38, N-(5-Bromothiazol-2-yl)-3-(4-(5-methyl-1,3,4-oxadiazol-2-yl)phenoxy)-5-((1-methyl-2-oxopyrrolidin-3-yl)oxy)benzamide] are 150%, 205%, 252% and 256%.
On the same counts, the results for `Cc1nnc(-c2ccc(Oc3cc(OC4CCN(C)C4=O)cc(C(=O)n4c(N)nc5ccccc54)c3)cc2)o1` (stereo not shown) [Example 11, 3-(3-(2-Amino-1H-benzo[d]imidazole-1-carbonyl)-5-(4-(5-methyl-1,3,4-oxadiazol-2-yl)phenoxy)phenoxy)-1-methylpyrrolidin-2-one] are 101%, 109%, 130% and 148%.
In the case of `Cc1csc(NC(=O)c2cc(Oc3ccc(-c4nnc(C)o4)cc3)cc(OC3CCN(C(C)C)C3=O)c2)n1` (stereo not shown) [Example 16, 3((1-Isopropyl-2-oxopyrrolidin-3-yl)oxy)-5-(4-(5-methyl-1,3,4-oxadiazol-2-yl)phenoxy)-N-(4-methylthiazol-2-yl)benzamide], the activity at 0.1 µM is 106%, the activity at 1 µM was 169%, the activity at 5 µM was found to be 259% and the activity at 10 µM was 280%.
On the same counts, the results for `Cc1nnc(-c2cccc(Oc3cc(OC4CCN(C)C4=O)cc(C(=O)Nc4nccs4)c3)c2)o1` (stereo not shown) [Example 10, 3-(3-(5-Methyl-1,3,4-oxadiazol-2-yl)phenoxy)-5-((1-methyl-2-oxopyrrolidin-3-yl)oxy)-N-(thiazol-2-yl)benzamide] are 130%, 204%, 232% and 228%.
Regarding `CN1CCC(Oc2cc(Oc3ccc(-c4nnc(C5CC5)o4)cc3)cc(C(=O)Nc3nccs3)c2)C1=O` (stereo not shown) [Example 32, 3-(4-(5-Cyclopropyl-1,3,4-oxadiazol-2-yl)phenoxy)-5-((1-methyl-2-oxopyrrolidin-3-yl)oxy)-N-(thiazol-2-yl)benzamide], the activity at 0.1 µM is 187%, the activity at 1 µM came out at 304%, the activity at 5 µM worked out at 366% and the activity at 10 µM stood at 382%.
On the same counts, the results for `Cc1nnc(-c2ccc(Oc3cc(OC4CCN(C(C)C)C4=O)cc(C(=O)Nc4ncc(C)s4)c3)cc2)o1` (stereo not shown) [Example 17, 3((1-Isopropyl-2-oxopyrrolidin-3-yl)oxy)-5-(4-(5-methyl-1,3,4-oxadiazol-2-yl)phenoxy)-N-(5-methylthiazol-2-yl)benzamide] are 125%, 158%, 192% and 178%.
Regarding `Cc1nnc(-c2ccc(Oc3cc(OC4CCN(C)C4=O)cc(C(=O)Nc4cnccn4)c3)cc2)o1` (stereo not shown) [Example 9, 3-(4-(5-Methyl-1,3,4-oxadiazol-2-yl)phenoxy)-5-((1-methyl-2-oxopyrrolidin-3-yl)oxy)-N-(pyrazin-2-yl)benzamide], the activity at 0.1 µM was 168%, the activity at 1 µM stood at 292%, the activity at 5 µM is 345% and the activity at 10 µM is 346%.
As for `Cc1nnc(-c2ccc(Oc3cc(OC4CCN(C)C4=O)cc(C(=O)NC4=NCCS4)c3)cc2)o1` (stereo not shown) [Example 6, N-(4,5-Dihydrothiazol-2-yl)-3-(4-(5-methyl-1,3,4-oxadiazol-2-yl)phenoxy)-5-((1-methyl-2-oxopyrrolidin-3-yl)oxy)benzamide], the activity at 0.1 µM was 100%, the activity at 1 µM is 115%, the activity at 5 µM amounted to 190% and the activity at 10 µM is 275%.
On the same counts, the results for `Cc1nc(-c2ccc(Oc3cc(OC4CCN(C)C4=O)cc(C(=O)Nc4ncc(C)s4)c3)cc2)no1` (stereo not shown) [Example 23, 3-(4-(5-Methyl-1,2,4-oxadiazol-3-yl)phenoxy)-5-((1-methyl-2-oxopyrrolidin-3-yl)oxy)-N-(5-methylthiazol-2-yl)benzamide] are 168%, 250%, 287% and 282%.
On the same counts, the results for `CC(C)Cc1nnc(-c2ccc(Oc3cc(OC4CCN(C)C4=O)cc(C(=O)Nc4nccs4)c3)cc2)o1` (stereo not shown) [Example 28, 3-(4-(5-Isobutyl-1,3,4-oxadiazol-2-yl)phenoxy)-5-((1-methyl-2-oxopyrrolidin-3-yl)oxy)-N-(thiazol-2-yl)benzamide] are 131%, 248%, 336% and 338%.
Take `Cc1nnc(-c2ccc(Oc3cc(OC4CCN(C5CC5)C4=O)cc(C(=O)Nc4nccs4)c3)cc2)o1` (stereo not shown) [Example 21, 3((1-Cyclopropyl-2-oxopyrrolidin-3-yl)oxy)-5-(4-(5-methyl-1,3,4-oxadiazol-2-yl)phenoxy)-N-(thiazol-2-yl)benzamide]: the activity at 0.1 µM worked out at 120%, the activity at 1 µM is 213%, the activity at 5 µM stood at 278% and the activity at 10 µM amounted to 281%.
The corresponding values for `Cc1nnc(-c2ccc(Oc3cc(OC4CCN(C)C4=O)cc(C(=O)Nc4ncc(C(=O)O)s4)c3)cc2)o1` (stereo not shown) [Example 15, 2-(3-(4-(5-Methyl-1,3,4-oxadiazol-2-yl)phenoxy)-5-((1-methyl-2-oxopyrrolidin-3-yl)oxy)benzamido)thiazole-5-carboxylic acid] are 95.5%, 126%, 206% and 237%.
For the molecule `Cc1nnc(-c2ccc(Oc3cc(OC4CCN(C(C)C)C4=O)cc(C(=O)Nc4nccs4)c3)cc2)o1` (stereo not shown) [Example 18, 3((1-Isopropyl-2-oxopyrrolidin-3-yl)oxy)-5-(4-(5-methyl-1,3,4-oxadiazol-2-yl)phenoxy)-N-(thiazol-2-yl)benzamide], the activity at 0.1 µM is 125%, the activity at 1 µM came out at 201%, the activity at 5 µM was found to be 253% and the activity at 10 µM was 280%.
On the same counts, the results for `Cc1nnc(-c2ccc(Oc3cc(OC4CCN(C)C4=O)cc(C(=O)Nc4cc(C)n(C(=O)OC(C)(C)C)n4)c3)cc2)o1` (stereo not shown) [Example 12, tert-Butyl 5-methyl-3-(3-(4-(5-methyl-1,3,4-oxadiazol-2-yl)phenoxy)-5-((1-methyl-2-oxopyrrolidin-3-yl)oxy)benzamido)-1H-pyrazole-1-carboxylate] are 107%, 119%, 139% and 150%.

The record behind these values is patent publication US8835469B2 (Cadila Healthcare Limited, priority 2009, dated 2014).
